This passage reports inhibition and I50 results from ChEMBL document CHEMBL3046045, “Synthesis of 7-methoxyapigeninidin and its fungicidal activity against Gloeocercospora sorghi” (1996).

Each structure is given as a SMILES string. Activity calls are given as the source filed them. The calls are words filed in the database; no cut-off is given here.

By inhibition is commonly meant the share of the control response that was lost under treatment.

Assay [1] relates to Pyricularia oryzae. Kind of assay: Antifungal activity against Magnaporthe oryzae assessed as inhibition of spore germination at 100 ppm. The class given is functional, organism-based.
The subject of assay [2] is Pyricularia oryzae. In words: Antifungal activity against Magnaporthe oryzae assessed as radial growth inhibition at 100 ppm. Format: functional, organism-based.
Assay [3] concerns Microdochium sorghi. In words: Antifungal activity against Gloeocercospora sorghi in potato dextrose agar medium assessed as inhibition of radial growth at 100 ppm. The class given is functional.
For assay [4], the system named is Pyricularia oryzae. In words: Antifungal activity against Magnaporthe oryzae assessed as inhibition of spore germination. The class given is functional.
For assay [5], the system named is Microdochium sorghi. Kind of assay: Antifungal activity against Gloeocercospora sorghi in potato dextrose agar medium assessed as inhibition of radial growth. The class given is functional.

For the molecule `Oc1ccc(-c2ccc3c(O)cc(O)cc3[o+]2)cc1` [APIGENIDIN], the inhibition result in the assay with Pyricularia oryzae [1] and in the assay on Pyricularia oryzae [2] was “inactive” each time. For the same molecule, in the assay on Microdochium sorghi [3], the inhibition at 100 ppm was 25%.
Consider `COc1cc(O)c2ccc(-c3ccc(O)cc3)[o+]c2c1.[Cl-]` [7-METHOXYAPIGENINIDIN], for which the I50 in the assay with Pyricularia oryzae [4] and with Microdochium sorghi [5] was 50 ppm each time. In addition, the inhibition entry in the assay on Pyricularia oryzae [2] is “inactive”.
